Measured values taken from publication PMC9065260 (Frontiers in Pharmacology, 2022).
Several values for one entry are separate records, joined by “and”; a condition that tells them apart may be missing. Equal values may be shown once.

Columns and labels:
[1] = test system: KYSE70 cells; test: MTT assay for cell proliferation and cytotoxicity; type: cell-based; settings: Homo sapiens, KYSE-70; MTT, 48 h, mean ± SD; read-out: IC50 KYSE70
Procedure: (§3) The compounds were dissolved in DMSO to make a 50 mM stock solution and were diluted to the concentration of working solutions with the complete growth medium before administration.
(§4) Cells were seeded in 96-well plates with densities of 2,200–2,500 cells/well in 100 μL. One day after seeding, the concentration of the test compounds between 0 and 50 μM, 0.1% DMSO was added to cells as control. […] After 48 h, MTT was added and incubated in the plate for 1–4 h in the incubator.

[2] = test system: KYSE410 cells; test: MTT assay for cell proliferation and cytotoxicity; type: cell-based; settings: Homo sapiens, KYSE-410; MTT, 48 h, mean ± SD; read-out: IC50 KYSE410
Procedure: as §3, §4

[3] = test system: KYSE450 cells; test: MTT assay for cell proliferation and cytotoxicity; type: cell-based; settings: Homo sapiens, KYSE-450; MTT, 48 h, mean ± SD; read-out: IC50 KYSE450
Procedure: as §3, §4

[4] = test system: H1650 cells; test: MTT assay for cell proliferation and cytotoxicity; type: cell-based; settings: Homo sapiens, NCI-H1650; MTT, 48 h, mean ± SD; read-out: IC50 H1650
Procedure: as §3, §4

[5] = test system: HCC827 cells; test: MTT assay for cell proliferation and cytotoxicity; type: cell-based; settings: Homo sapiens, 48 h, mean ± SD
Procedure: as §3, §4

[6] = test system: human esophageal epithelial cell SHEE; test: MTT assay, toxicity against normal cells; type: cell-based; settings: MTT, normal human esophageal epithelial cells, mean ± SD, read-out: IC50 SHEE
Procedure: Cells were seeded in 96-well plates with densities of 2,200–2,500 cells/well in 100 μL. One day after seeding, the concentration of the test compounds between 0 and 50 μM, 0.1% DMSO was added to cells as control. Approximately 2200-2500 transfected cells in 100 μL were incubated in quintuplicate in 96-well plates. After 48 h, MTT was added and incubated in the plate for 1–4 h in the incubator.

[7] = test system: KYSE70TR cells; test: MTT assay, drug-resistant cell line; type: cell-based, human; settings: Homo sapiens; MTT, paclitaxel-resistant esophageal cancer cell line; read-out: IC50 KYSE70TR
Procedure: as §3, §4

[8] = test system: KYSE410TR cells; test: MTT assay, drug-resistant cell line; type: cell-based, human; settings: Homo sapiens; MTT, paclitaxel-resistant esophageal cancer cell line; read-out: IC50 KYSE410TR
Procedure: as §3, §4

[9] = test system: KYSE450TR cells; test: MTT assay, drug-resistant cell line; type: cell-based, human; settings: Homo sapiens; MTT, paclitaxel-resistant esophageal cancer cell line; read-out: IC50 KYSE450TR
Procedure: as §3, §4

[10] = test system: H1650TR cells; test: MTT assay, drug-resistant cell line; type: cell-based, human; settings: Homo sapiens; MTT, paclitaxel-resistant lung cancer cell line; read-out: IC50 H1650TR
Procedure: as §3, §4

[11] = test system: HCC827GR cells; test: MTT assay, drug-resistant cell line; type: cell-based, human; settings: Homo sapiens; MTT, gefitinib-resistant lung cancer cell line; read-out: IC50 HCC827GR
Procedure: as §3, §4

[12] = test system: KYSE450 cells; test: Flow cytometry detection for cell apoptosis (Annexin V/PI); type: cell-based, human; settings: 48 h
Procedure: (§1) Cell apoptosis analysis was carried out by flow cytometry using the Annexin V/PI apoptosis methods. […] The cells were harvested and incubated with 250 μL of 1 × Annexin V binding buffer containing 5 μL of PI and 5 μL of FITC Annexin V (final concentration 1.8 μg/ml, Biolegend cat: 640945) for 15 min at room temperature in the dark. Then 200 µL of 1 × binding buffer was added for flow cytometry analysis (BD FACSCalibur™ Flow Cytometer).

[13] = test system: KYSE450TR cells; test: as above; type: cell-based, human; settings: 48 h
Procedure: as §1

[14] = test system: KYSE450 cells; test: Cell cycle analysis by flow cytometry; type: cell-based, human; settings: 24 h
[15] = test system: KYSE450TR cells; test: Cell cycle analysis by flow cytometry; type: cell-based, human; settings: 24 h
[16] = target: T1, EGFR wild-type protein (H672-E410) (Homo sapiens, UniProt P00533); test: Surface plasmon resonance (SPR) EGFR protein affinity; type: binding; settings: immobilized wild-type EGFR
T1 construct: purchased Active MOTIF 31165

[17] = target: T2, EGFR mutant protein (672-1210, L858R) (Homo sapiens, UniProt P00533, L858R); test: as above; type: binding
T2 construct: the EGFR mutant type (672-1210, L858R, Active MOTIF, cat: 81200); purchased Active MOTIF 81200
Procedure: Surface plasmon resonance experiments were carried out to evaluate the interaction between 3d with the EGFR wild-type (0.468 μg/μL, Active MOTIF, cat: 31165) and the EGFR mutant type (672-1210, L858R, Active MOTIF, cat: 81200). The interaction of erlotinib with wild-type EGFR was also studied. Biacore T-200 (GE healthcare, Waukesha, WI, United States) equipment was used for the study. First, the EGFR wild-type (0.468 μg/μL, Active MOTIF, cat: 31165) and the EGFR mutant type (672-1210, L858R, Active MOTIF, cat: 81200) were covalently immobilized at densities of 2000 response units onto a CM5 sensor chip. Then, 3d dissolved in DMSO was injected at concentrations between 0.064 and 5,000 nM at 25°C. […] During the interaction, the changes in the refractive index were measured in real time to allow the plotting of the results of interaction as response units versus time. The interaction results were analyzed with BIA evaluation 3.0 software.

[18] = test system: KYSE450 cells (caspase-3, cytochrome-c, PARP); test: Western blot of apoptosis-related marker proteins; type: cell-based, human; settings: KYSE450, 4 μM, 6, 12 and 24 h vs control at 0 h
Procedure: KYSE450 cells (3 × 10^5/well) were incubated overnight in 10 square petri dishes and then treated with compound 3d at 4 μM for 0, 6, 12, and 24 h. Cells treated with 0.1% DMSO were used as control. Then, the cells were harvested, and total proteins were extracted. […] The membrane was blocked for 1 h, then incubated overnight with a 1:1000 dilution of anti-caspase-3, anti-cytochrome-c, and anti-PARP, or 1 : 3,000 dilution of anti-β-action primary antibody at 4°C. Finally, 1 : 3,000 anti-rabbit secondary antibodies were incubated for 2 h at room temperature. Protein bands were developed by chemiluminescence.

[19] = test system: HCC827 cells; test: Plate clone formation assay; type: cell-based, human; settings: HCC827, 2.5, 5 and 10 µM, 10 days
Procedure: (§2) Cells were seeded in 6-well plates with a density of 200 cells/well and cultured overnight for attachment. […] Medium with or without compounds was changed every 48 h. When colony formation was visible, the medium was discharged. Then, the colonies were washed with cold PBS, fixed with 4% paraformaldehyde (PFA) for at least 30 min, and then stained with 0.2% crystal violet solution in 100% ethanol for 20 min.

[20] = test system: HCC827GR cells; test: Plate clone formation assay; type: cell-based, human; settings: HCC827GR, 2.5, 5 and 10 µM, 10 days
Procedure: as §2

[21] = test system: KYSE450 cells; test: Plate clone formation assay; type: cell-based, human; settings: KYSE450, 2.5, 5 and 10 µM, 10 days
Procedure: as §2

[22] = test system: KYSE450TR cells; test: Plate clone formation assay; type: cell-based, human; settings: KYSE450TR, 2.5, 5 and 10 µM, 10 days
Procedure: as §2

- IC50 [10]: 5.76 ± 0.33 µM
- IC50 [11]: 2.38 ± 0.17 µM
- Rmax [16]: 12.9 RU
- Kd ([16]; 25°C): 6.88 µM and 6.89 µM
- Kd ([17]; immobilized mutant EGFR (L858R), 25°C): 3.12 µM and 3.13 µM
- Rmax ([17]; immobilized mutant EGFR (mEGFR)): 21.16 RU
Compound: COCCOc1cc2ncnc(Nc3cccc(-c4cn(Cc5cc(Br)cc(Br)c5)nn4)c3)c2cc1OCCOC [Compound 3d, [6,7-Bis-(2-Methoxy-Ethoxy)-Quinazolin-4-yl]-{3-[1-(3,5-Dibromo-Benzyl)-1H-(1,2,3)Triazol-4-yl]-Phenyl}-Amine]
- IC50 [1]: 5.43 ± 0.21 µM
- IC50 [2]: 6.91 ± 0.4 µM
- IC50 [3]: 4.23 ± 0.19 µM
- IC50 [4]: 2.99 ± 0.13 µM
- IC50 [5]: 8.17 ± 0.42 µM
- IC50 [6]: > 50 µM
- IC50 [7]: 7.17 ± 0.73 µM
- IC50 [8]: 7.91 ± 0.61 µM
- IC50 [9]: 10 ± 0.75 µM
- proportion of apoptotic cells ([12]; KYSE450, 5 μM): 24.50%
- proportion of apoptotic cells ([12]; KYSE450, 10 μM): 69.64%
- proportion of apoptotic cells ([13]; 5 μM): 44.12%
- proportion of apoptotic cells ([13]; 10 μM): 48.77%
- ratio of cells in G0/G1 phase ([14]; KYSE450, 3.5 μM): 57.83%
- ratio of cells in G2/M phase ([14]; KYSE450, 3.5 μM): 16.5%
- ratio of cells in S phase ([14]; KYSE450, 3.5 μM): 25.67%
- ratio of cells in G0/G1 phase ([14]; KYSE450, 7 μM): 56.56%
- ratio of cells in G2/M phase ([14]; KYSE450, 7 μM): 18.74%
- ratio of cells in S phase ([14]; KYSE450, 7 μM): 24.7%
- ratio of cells in G0/G1 phase ([14]; KYSE450, 14 μM): 60.37%
- ratio of cells in G2/M phase ([14]; KYSE450, 14 μM): 15.47%
- ratio of cells in S phase ([14]; KYSE450, 14 μM): 24.16%
- ratio of cells in G0/G1 phase ([14]; KYSE450, 28 μM): 55.21%
- ratio of cells in G2/M phase ([14]; KYSE450, 28 μM): 20.66%
- ratio of cells in S phase ([14]; KYSE450, 28 μM): 24.13%
- cell cycle phase in which cells are arrested ([14]; KYSE450, 3.5-28 μM): G0/G1 phase
- ratio of cells in G0/G1 phase ([15]; 3.5 μM): 34.92%
- ratio of cells in G2/M phase ([15]; 3.5 μM): 22.86%
- ratio of cells in S phase ([15]; 3.5 μM): 42.22%
- ratio of cells in G0/G1 phase ([15]; 7 μM): 37.56%
- ratio of cells in G2/M phase ([15]; 7 μM): 23.94%
- ratio of cells in S phase ([15]; 7 μM): 38.50%
- ratio of cells in G0/G1 phase ([15]; 14 μM): 43.34%
- ratio of cells in G2/M phase ([15]; 14 μM): 23.39%
- ratio of cells in S phase ([15]; 14 μM): 33.27%
- ratio of cells in G0/G1 phase ([15]; 28 μM): 41.19%
- ratio of cells in G2/M phase ([15]; 28 μM): 27.28%
- ratio of cells in S phase ([15]; 28 μM): 31.53%
- cell cycle phase in which cells are arrested ([15]; 3.5-28 μM): G2/M phase
- caspase-3 protein level [18]: higher than those in the control at 0 h
- cleaved PARP protein level [18]: higher than those of the control at 0 h
- cytochrome-c protein level [18]: higher than those in the control at 0 h
- inhibition effect on colony formation [19]: more significant than that of erlotinib
- inhibition effect on colony formation [20]: more significant than that of erlotinib
- inhibition effect on colony formation [21]: more significant than that of erlotinib
- inhibition effect on colony formation [22]: more significant than that of erlotinib
